Test results taken from patent US20240238251A9, “A Composition Comprising Heterocyclic Compounds, Preparation Method and Application Thereof” (SHANGHAI YASHENG PHARMACEUTICAL TECHNOLOGY CO., LTD., priority 2020, published 2024).

Assay: Pharmacokinetics after oral administration in dogs
Assay type: in vivo, beagle dogs
Procedure: After fully grinding and mixing the samples with PEG400 (the concentration in the sample solution was 5%), a small amount (about 2 ml) of 0.2% HPMC aqueous solution was added to grind into a uniform paste until there were no large particles. Under the condition of continuous grinding, 0.2% HPMC aqueous solution was added to a sufficient amount and maintained stirring (800 RPM) for 5 minutes. After sealing the sample solution container with sealing film, it was placed in the ultrasonic instrument (40 kHz) for ultrasonic for 20 minutes (to avoid the rise of ultrasonic medium water temperature during ultrasonic process, the water temperature was controlled within 40° C.); Stopped the ultrasound, mixed the suspension evenly before use (stirring for about 3 minutes), and then sampled immediately (the concentration of the sample was 6 mg/ml).
Test method: three male beagle dogs were selected and divided into test article 1 (APG-115 particles) group and test article 2 (APG-115 hydrate) group. Each group received single oral capsule administration: after the administration of test article 1, after an 8-day cleaning period, the group name was changed to test article 2, and so on.
Blood samples were collected and plasma was separated at 0.5, 1.0, 2.0, 4.0, 6.0, 10, 24, 48, 72, 96, 120, 144 and 168 hours before and after each round of administration. All plasma samples were mailed to the client for testing. The concentration of APG-115 in dog plasma was analyzed by LC-MS/Ms. The lower limit of quantification of the method was 50 ng/ml. The non compartmental model method (NCA) of the metabolic kinetic data analysis software winnonlin 8.0.0.3176 was used to analyze the plasma concentration data and calculate the pharmacokinetic parameters. See table 21 to evaluate the kinetic characteristics of APG-115 in animals after administration.

[1] = dog, plasma, male beagle dogs, single oral administration, Mean
[2] = male beagle dogs, single oral administration, Mean

CCN1[C@@H](C(=O)NC23CCC(C(=O)O)(CC2)CC3)[C@H](c2cccc(Cl)c2F)[C@]2(C(=O)Nc3cc(Cl)ccc32)C12CCCCC2 [APG-115 hydrate] gave an AUC(0-inf) [1] of 33400 ng·h/mL, an AUC(0-t) [1] of 4580 ng·h/mL and a Cmax [1] of 136 ng/mL. For the same compound, the MRT [1] was 31.4 h, the Tmax [1] was 6 h and the half-life [1] was 346 h. The exposure in dogs (dogs, oral, in words) was “very low”, the CL [2] was 1.013 mL/min/kg and the Vd [2] was 29.08877 L/kg.
